Assay results published in patent US20120196899A1, “METHODS AND PRODUCTS FOR TREATING INFLAMMATION” (Rock Creek Pharmaceuticals, Inc., priority 2010, published 2012).
Read-outs that look alike come from different tables or passages of the source.

Test: Plasma toxicokinetics after single i.v. bolus
Type: in vivo, Sprague-Dawley rats
Details: for concentration at 4 h / concentration at 6 h / concentration at 1 h / concentration at 2 h / concentration at 8 h / concentration at 0.5 h / half-life: Sprague-Dawley, rat, plasma; for concentration at 4 h / concentration at 6 h / concentration at 1 h / concentration at 2 h / concentration at 8 h / concentration at 0.5 h: intravenous; for half-life: iv
Experimental: Six rats (3 males and 3 females) were dosed per dose group. […] Plasma and brain homogenates were stored at −80° C. until analysis.
An additional 48 rats (24 males and 24 females) received a single intravenous dose via the tail vein at the same doses as mentioned above. At 30 and 360 minutes post administration, 6 rats (3 males and 3 females) per dose group, per time point were euthanized, bled via cardiac puncture, and perfused, and brains were collected. The brains were homogenized. Blood was spun, and plasma was collected. Plasma and brain homogenate were stored at −80° C.
Four aliquots of each dose level formulation were collected and stored at −80° C. The test compound, corresponding dose level, number of animals, and sample collection times for Phase I of the study are shown in Table 3. The test compound, corresponding dose level, number of animals, and sample collection times for Phase II of the study are shown in Table 4. The physical signs of each animal were monitored following administration of the test compound.
The animals were weighed prior to dosing and received a single i.v. dose of either test compound at a volume of 5 mL/kg. Blood was collected via the venus plexus (retro-orbital) into tubes containing (K2) EDTA. No more than 0.5 mL was collected per time point. […] The brain was removed, weighed, homogenized in sterile 0.9% saline at a volume equal to its weight, and stored at −80° C.
Plasma was separated according to the instructions for MICROTAINER® brand collection tubes (3 minutes, 2000×g). Plasma was decanted into microfuge tubes and stored at −80° C. Remaining test compound was stored at −80° C.
The signal was optimized for each compound by electrospray ionization (ESI) positive or negative ionization mode. A single ion mode (SIM) scan was used to optimize the Fragmentor for the precursor ion and a product ion analysis was used to identify the best fragment for analysis and to optimize the collision energy. The fragment which gave the most sensitive and specific signal was chosen.
Sample preparation. […] The amount of the test agent in the supernatant was determined by liquid chromatography tandem mass spectrometry (LC/MS/MS).
Analysis. Samples were analyzed by LC/MS/MS using an Agilent 6410 mass spectrometer coupled with an Agilent 1200 high pressure liquid chromatography (HPLC) and a CTC PAL chilled autosampler, all controlled by MassHunter software (Agilent). After separation on a hydrophilic interaction liquid chromatography (HILIC) HPLC column (Sepax) using an acetonitrile-ammonium acetate/acetic acid gradient system, peaks were analyzed by mass spectrometry (MS) using ESI ionization in multiple reaction monitoring (MRM) mode. MassHunter software was used to calculate the concentration of the test compounds in samples from the peak area using the appropriate calibration curves.
Calibration samples. Calibration curves were determined for both rat plasma and brain homogenate. Calibration samples were prepared by diluting a 50× stock solution of the test compound in PBS with blank matrix to the appropriate concentration and these samples were prepared as described above in the sample preparation.

[1] = 0.75 mg/kg, Concentration of anatabine in rat plasma, Anatabine 0.75 mg/kg, rat plasma, rats of group 3
[2] = 0.75 mg/kg, Concentration of anatabine in rat plasma, Anatabine 0.75 mg/kg, rat plasma, rats of group 4
[3] = 1 mg/kg, Concentration of anatabine in rat plasma, Anatabine 1.0 mg/kg, rat plasma, rats of group 5
[4] = 1 mg/kg, Concentration of anatabine in rat plasma, Anatabine 1.0 mg/kg, rat plasma, rats of group 6
[5] = both sexes, 0.1 mg/kg, Anatabine 0.1 mg/kg, male and female, read-out: Avg. Conc. rat plasma, combined male and female
[6] = both sexes, 0.1 mg/kg, Concentration of anatabine in rat plasma, Anatabine 0.1 mg/kg, Rat Plasma, individual rats
[7] = both sexes, 0.75 mg/kg, Anatabine 0.75 mg/kg, male and female, read-out: Avg. Conc. rat plasma, combined male and female
[8] = both sexes, 1 mg/kg, Anatabine 1.0 mg/kg, male and female, read-out: Avg. Conc. rat plasma, combined male and female

C1=CCC(c2cccnc2)NC1 (racemic) [Anatabine, 1,2,3,6-tetrahydro-[2,3′]bipyridinyl]
Avg. Conc. rat plasma (Anatabine 0.1 mg/kg, female, 8 hr): <LLQ
Avg. Conc. rat plasma (Anatabine 0.1 mg/kg, female, 24 hr): <LLQ
Avg. Conc. rat plasma, combined male and female (Anatabine 0.1 mg/kg, male and female, 8 hr): <LLQ
Avg. Conc. rat plasma, combined male and female (Anatabine 0.1 mg/kg, male and female, 24 hr): <LLQ
Avg. Conc. rat plasma (Anatabine 0.1 mg/kg, male, 6 hr (1st 6 hr line)): <LLQ
Avg. Conc. rat plasma (Anatabine 0.1 mg/kg, male, 8 hr): <LLQ
Avg. Conc. rat plasma (Anatabine 0.1 mg/kg, male, 24 hr): <LLQ
Avg. Conc. rat plasma (Anatabine 0.75 mg/kg, female, 24 hr): <LLQ
Avg. Conc. rat plasma, combined male and female (Anatabine 0.75 mg/kg, male and female, 24 hr): <LLQ
Avg. Conc. rat plasma (Anatabine 0.75 mg/kg, male, 24 hr): <LLQ
Avg. Conc. rat plasma (Anatabine 1.0 mg/kg, female, 24 hr): <LLQ
Avg. Conc. rat plasma, combined male and female (Anatabine 1.0 mg/kg, male and female, 24 hr): <LLQ
Avg. Conc. rat plasma (Anatabine 1.0 mg/kg, male, 24 hr): <LLQ
concentration at 4 h (0.1 mg/kg, Concentration of anatabine in rat plasma, Anatabine 0.1 mg/kg, Rat Plasma, individual rats): 3 ng/mL
concentration at 6 h (0.1 mg/kg, Concentration of anatabine in rat plasma, Anatabine 0.1 mg/kg, rat plasma, 6 hr, rats 2A-2C): 3 ng/mL
concentration at 1 h [1]: 153 ng/mL
concentration at 1 h [2]: 146 ng/mL
concentration at 2 h [1]: 73 ng/mL
concentration at 2 h [2]: 89 ng/mL
concentration at 4 h [1]: 29 ng/mL
concentration at 4 h [2]: 45 ng/mL
concentration at 8 h (0.75 mg/kg, Concentration of anatabine in rat plasma, Anatabine 0.75 mg/kg, rat plasma, 8 hr, rats of group 3): 8 ng/mL
concentration at 8 h (0.75 mg/kg, Concentration of anatabine in rat plasma, Anatabine 0.75 mg/kg, rat plasma, 8 hr, rats of group 4): 10 ng/mL
concentration at 0.5 h (1 mg/kg, Concentration of anatabine in rat plasma, Anatabine 1.0 mg/kg, rat plasma, 0.5 hr, rats of group 5): 288 ng/mL
concentration at 0.5 h (1 mg/kg, Concentration of anatabine in rat plasma, Anatabine 1.0 mg/kg, rat plasma, 0.5 hr, rats of group 6): 222 ng/mL
concentration at 1 h [3]: 257 ng/mL
concentration at 1 h [4]: 218 ng/mL
concentration at 2 h [3]: 121 ng/mL
concentration at 2 h [4]: 147 ng/mL
concentration at 4 h [3]: 36 ng/mL
concentration at 4 h [4]: 73 ng/mL
concentration at 6 h (1 mg/kg, Concentration of anatabine in rat plasma, Anatabine 1.0 mg/kg, rat plasma, 6 hr, rats of group 6): 33 ng/mL
concentration at 8 h (1 mg/kg, Concentration of anatabine in rat plasma, Anatabine 1.0 mg/kg, rat plasma, 8 hr, rats of group 5): 8 ng/mL
concentration at 8 h (1 mg/kg, Concentration of anatabine in rat plasma, Anatabine 1.0 mg/kg, rat plasma, 8 hr, rats of group 6): 19 ng/mL
t1/2 (anatabine 0.1 mg/kg single i.v., female rats): 1.64 ± 0.59 h
t1/2 (anatabine 0.75 mg/kg single i.v., male rats): 1.64 ± 0.12 h
t1/2 (anatabine 0.75 mg/kg single i.v., rat plasma, M + F): 1.68 ± 0.09 h
t1/2 (anatabine 1.0 mg/kg single i.v., rat plasma, M + F): 1.64 ± 0.25 h
concentration at 0.5 h (both sexes, 0.1 mg/kg, Anatabine 0.1 mg/kg, male and female, 0.5 hr (1st 0.5 hr line), n=12, read-out: Avg. Conc. rat plasma, combined male and female): 22.9 ng/mL
concentration at 1 h [5]: 8 ng/mL
concentration at 2 h [5]: 8.7 ng/mL
concentration at 4 h [5]: 5.2 ng/mL
concentration at 6 h (both sexes, 0.1 mg/kg, Anatabine 0.1 mg/kg, male and female, 6 hr (1st 6 hr line), n=6, read-out: Avg. Conc. rat plasma, combined male and female): 4.3 ng/mL
concentration at 6 h (both sexes, 0.1 mg/kg, Anatabine 0.1 mg/kg, male and female, 6 hr (2nd 6 hr line), n=4, read-out: Avg. Conc. rat plasma, combined male and female): 4.5 ng/mL
concentration at 1 h [6]: 10 ng/mL
concentration at 2 h [6]: 6 ng/mL
concentration at 0.5 h (both sexes, 0.75 mg/kg, Anatabine 0.75 mg/kg, male and female, 0.5 hr (1st 0.5 hr line), n=12, read-out: Avg. Conc. rat plasma, combined male and female): 257 ng/mL
concentration at 0.5 h (both sexes, 0.75 mg/kg, Anatabine 0.75 mg/kg, male and female, 0.5 hr (2nd 0.5 hr line), n=6, read-out: Avg. Conc. rat plasma, combined male and female): 328 ng/mL
concentration at 1 h [7]: 162 ng/mL
concentration at 2 h [7]: 91.7 ng/mL
concentration at 4 h [7]: 40 ng/mL
concentration at 6 h (both sexes, 0.75 mg/kg, Anatabine 0.75 mg/kg, male and female, 6 hr (1st 6 hr line), n=12, read-out: Avg. Conc. rat plasma, combined male and female): 19.3 ng/mL
concentration at 6 h (both sexes, 0.75 mg/kg, Anatabine 0.75 mg/kg, male and female, 6 hr (2nd 6 hr line), n=6, read-out: Avg. Conc. rat plasma, combined male and female): 22.5 ng/mL
concentration at 8 h (both sexes, 0.75 mg/kg, Anatabine 0.75 mg/kg, male and female, 8 hr, read-out: Avg. Conc. rat plasma, combined male and female): 10 ng/mL
concentration at 0.5 h (both sexes, 1 mg/kg, Anatabine 1.0 mg/kg, male and female, 0.5 hr (1st 0.5 hr line), n=12, read-out: Avg. Conc. rat plasma, combined male and female): 319 ng/mL
concentration at 0.5 h (both sexes, 1 mg/kg, Anatabine 1.0 mg/kg, male and female, 0.5 hr (2nd 0.5 hr line), n=6, read-out: Avg. Conc. rat plasma, combined male and female): 384 ng/mL
concentration at 1 h [8]: 231 ng/mL
concentration at 2 h [8]: 143 ng/mL
concentration at 4 h [8]: 51.5 ng/mL
concentration at 6 h (both sexes, 1 mg/kg, Anatabine 1.0 mg/kg, male and female, 6 hr (1st 6 hr line), n=12, read-out: Avg. Conc. rat plasma, combined male and female): 24.3 ng/mL
concentration at 6 h (both sexes, 1 mg/kg, Anatabine 1.0 mg/kg, male and female, 6 hr (2nd 6 hr line), n=6, read-out: Avg. Conc. rat plasma, combined male and female): 25 ng/mL
concentration at 8 h (both sexes, 1 mg/kg, Anatabine 1.0 mg/kg, male and female, 8 hr, read-out: Avg. Conc. rat plasma, combined male and female): 12.7 ng/mL
half-life (both sexes, 0.1 mg/kg, anatabine 0.1 mg/kg single i.v., rat plasma, M + F, read-out: t1/2 (converted)): 86.4 ± 28.8 min
half-life (both sexes, elimination half-life (t1/2), range over the anatabine treatment groups, anatabine 0.1-1.0 mg/kg single i.v., rats M + F): 98.4 to 101 min
concentration at 0.5 h (female, 0.1 mg/kg, Anatabine 0.1 mg/kg, female, 0.5 hr (1st 0.5 hr line), read-out: Avg. Conc. rat plasma): 13 ng/mL
